Literature values, collected in Sander's compilation of Henry's law constants (doi:10.1021/je900477x).
Values joined by “and” are separate entries in the source; they are usually repeats but may differ in a detail not shown here. Equal values may be shown once.

Test: Henry solubility constant Hcp at 298.15 K (mol/(m3 Pa))
Conditions: reference: Ma et al. (2010b); cited value

Structure (SMILES)	Henry solubility constant Hcp
c1cc2c3c(cccc3c1)CC2 [acenaphthene]	0.072 and 0.07
c1ccc2c(c1)-c1ccc3ccc4cccc5cc-2c1c3c45 [indeno[1,2,3-cd]pyrene]	29 and 20
c1ccc2c(c1)-c1cccc3c1c-2cc1ccccc13 [benzo[b]fluoranthene]	15
c1ccc2c(c1)ccc1c3ccccc3ccc21 [chrysene]	2.3 and 2.7
c1ccc2c(c1)cc1ccc3cccc4ccc2c1c34 [benzo[a]pyrene]	20 and 13
c1ccc2c(c1)Cc1ccccc1-2 [2,3-benzindene]	0.11
C1=Cc2cccc3cccc1c23 [acenaphthylene]	0.082 and 0.1
c1ccc2ccccc2c1 [naphthalene]	0.021 and 0.022
c1ccc2c(c1)-c1cccc3cccc-2c13 [benzo[jk]fluorene]	0.69 and 0.75
c1ccc2cc3c(cc2c1)-c1cccc2cccc-3c12 [benzo[k]fluoranthene]	17 and 18
c1ccc2cc3ccccc3cc2c1 [anthracene]	0.2
c1cc2ccc3ccc4ccc5cccc6c(c1)c2c3c4c56 [benzo[ghi]perylene]	30 and 24
c1ccc2c(c1)ccc1ccccc12 [phenanthrene]	0.23
